According to patent US7652153B2, “Caspase inhibitors and uses thereof” (Vertex Pharmaceuticals Incorporated, priority 2004, dated 2010):
pKi: −log10 of the molar value.

What was measured:
caspase-1 = target: T1, caspase-1 (Homo sapiens, UniProt P29466); assay: Caspase-1 enzyme inhibition (Ki, method of Margolin et al.); type: biochemical; conditions: Suc-YVAD-pNA substrate 80 μM, 37° C., pH 7.5; read-out: Ki C1
T1 sequence (P29466 120-297 limits assumed): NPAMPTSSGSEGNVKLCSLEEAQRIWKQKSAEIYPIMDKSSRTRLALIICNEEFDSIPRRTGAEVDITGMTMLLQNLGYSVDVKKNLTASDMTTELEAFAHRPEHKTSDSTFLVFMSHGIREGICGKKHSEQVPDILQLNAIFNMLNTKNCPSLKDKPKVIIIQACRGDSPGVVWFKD
T1 sequence (P29466 317-404 limits assumed): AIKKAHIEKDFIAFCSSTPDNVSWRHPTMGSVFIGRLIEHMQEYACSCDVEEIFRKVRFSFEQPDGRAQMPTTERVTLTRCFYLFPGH
Method: (§1) Compounds of this invention may be tested using the methods described below.
(§2) In Vitro Assays Enzyme Inhibition
(§3) Ki values for test compounds with caspase-1 and caspase-8 were obtained by the method of Margolin et al. (J. Biol. Chem., 272 pp. 7223-7228 (1997)). Other caspases may be assayed similarly (see, e.g., WO 99/47545). Assays were performed in 10 mM Tris (Sigma Corp, St Louis Mo.) pH 7.5, 1 mM Dithiothreitol (DTT, Research Organic INC, Cleveland, Ohio) and 0.1% CHAPS (Pierce, Rockford Ill.) at 37° C. For caspase-3, a solution of 8% glycerol was added to the assay buffer to improve enzyme stability. A 65 μL aliquot of the assay buffer and 5 μL aliquot of the appropriate dilutions of inhibitor in DMSO where pipetted into a 96 well plate, treated with 10 μL of caspase, then diluted in assay buffer (0.5-40 nM active protein by active site titration). A control containing DMSO but no compound was included for each determination. The plates were then incubated for 15 minutes at 37° C., before addition of the appropriate substrate (20 μL, final concentration 1-4×KM, final assay volume 100 μL) to initiate the reaction. Reaction rates were measured at 37° C. either by following the time dependant increase in absorbance at 405 nm (for the pNA substrates) or in fluorescence (Ex 390, Em 460) (for the AMC substrates). The rates obtained were plotted against inhibitor concentration and the data fit to the Morrison tight-binding equation for competitive inhibitors (Morrison, J. F., Biochem. Biophys. Acta, 185 pp. 269-286 (1969)). The substrates used for the individual assays were as follows:
Caspase-1 Suc-YVAD-pNA (Bachem, King of Prussia, Pa.) (final concentration in the assay 80 μM);

caspase-8 = caspase-8 (Homo sapiens, UniProt Q14790); assay: Caspase-8 enzyme inhibition (Ki, method of Margolin et al.); type: biochemical; conditions: Ac-DEVD-pNA substrate 80 μM, 37° C., pH 7.5; read-out: Ki C8
Method: as §1, §2, §3
Caspase-8 Ac-DEVD-pNA (Bachem, King of Prussia, Pa.) (final concentration in assay 80 μM).

Sequence of caspase-8 (Q14790 217-374 limits assumed, species assumed): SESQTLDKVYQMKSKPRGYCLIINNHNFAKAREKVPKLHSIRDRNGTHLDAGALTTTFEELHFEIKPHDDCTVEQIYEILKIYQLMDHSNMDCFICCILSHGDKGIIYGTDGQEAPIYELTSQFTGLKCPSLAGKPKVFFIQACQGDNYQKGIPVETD
Sequence of caspase-8 (Q14790 385-479 limits assumed, species assumed): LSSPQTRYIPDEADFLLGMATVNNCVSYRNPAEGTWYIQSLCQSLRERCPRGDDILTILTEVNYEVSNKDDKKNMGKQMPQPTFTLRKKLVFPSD

| Structure (SMILES) | pKi (caspase-1) | pKi (caspase-8) |
| --- | --- | --- |
| Cc1ncccc1C(=O)N[C@H](C(=O)N1CCC[C@H]1C(=O)N[C@H](C=O)CC(=O)O)C(C)C [II-15, (S,S,S)-(3S)-[(1-{3-Methyl-(2S)-[(2-methyl-pyridine-3-carbonyl)-amino]-butyryl}-pyrrolidine-(2S)-carbonyl)-amino]-4-oxo-butyric acid] | > 8.00 | 7.52 to 7.68 |
| Cc1ccncc1C(=O)N[C@H](C(=O)N1CCC[C@H]1C(=O)N[C@H](C=O)CC(=O)O)C(C)C [II-16, (S,S,S)-(3S)-[(1-{3-Methyl-(2S)-[(4-methyl-pyridine-3-carbonyl)-amino]-butyryl}-pyrrolidine-(2S)-carbonyl)-amino]-4-oxo-butyric acid] | > 8.00 | 7.52 to 7.68 |
| Cc1ccsc1C(=O)N[C@H](C(=O)N1CCC[C@H]1C(=O)N[C@H](C=O)CC(=O)O)C(C)C [II-17, (S,S,S)-(3S)-[(1-{3-Methyl-(2S)-[(3-methyl-thiophene-2-carbonyl)-amino]-butyryl}-pyrrolidine-(2S)-carbonyl)-amino]-4-oxo-butyric acid] | > 8.00 | > 8.00 |
| COc1cccc(C(=O)N[C@H](C(=O)N2CCC[C@H]2C(=O)N[C@H](C=O)CC(=O)O)C(C)(C)C)c1C [II-20, (S,S,S)-(3S)-({1-[(2S)-(3-Methoxy-2-methyl-benzoylamino)-3,3-dimethyl-butyryl]-pyrrolidine-(2S)-carbonyl}-amino)-4-oxo-butyric acid] | > 8.00 | > 8.00 |
| COc1cccc(C(=O)N[C@@H](CC(F)(F)F)C(=O)N2CCC[C@H]2C(=O)N[C@H](C=O)CC(=O)O)c1C [II-21, (S,S,S)-4-Oxo-(3S)-({1-[4,4,4-trifluoro-(2S)-(2-methyl-3-methoxy-benzoylamino)-butyryl]-pyrrolidine-(2S)-carbonyl}-amino)-butyric acid] | > 8.00 | 7.52 to 7.68 |
| COc1ccc(C)c(C(=O)N[C@H](C(=O)N2CCC[C@H]2C(=O)N[C@H](C=O)CC(=O)O)C(C)C)c1 [II-22, (S,S,S)-(3S)-({1-[(2S)-(5-Methoxy-2-methyl-benzoylamino)-3-methyl-butyryl]-pyrrolidine-(2S)-carbonyl}-amino)-4-oxo-butyric acid] | > 8.00 | 7.52 to 7.68 |
| COc1cccc(C(=O)N[C@@H](Cc2cscn2)C(=O)N2CCC[C@H]2C(=O)N[C@H](C=O)CC(=O)O)c1C [II-23, (S,S,S)-(3S)-({1-[(2S)-(3-Methoxy-2-methyl-benzoylamino)-3-thiazol-4-yl-propionyl]-pyrrolidine-(2S)-carbonyl}-amino)-4-oxo-butyric acid] | > 8.00 | 7.52 to 7.68 |
| O=C[C@H](CC(=O)O)NC(=O)[C@@H]1CCCN1C(=O)[C@H](CC(F)(F)F)NC(=O)c1ccccc1Cl [II-24, (S,S,S)-(3S)-({1-[(2S)-(2-Chloro-benzoylamino)-4,4,4-trifluoro-butyryl]-pyrrolidine-(2S)-carbonyl}-amino)-4-oxo-butyric acid] | > 8.00 | 7.52 to 7.68 |
| O=C[C@H](CC(=O)O)NC(=O)[C@@H]1CCCN1C(=O)[C@H](Cc1cscn1)NC(=O)c1ccccc1Cl [II-25, (S,S,S)-(3S)-({1-[(2S)-(2-Chloro-benzoylamino)-3-thiazol-4-yl-propionyl]-pyrrolidine-(2S)-carbonyl}-amino)-4-oxo-butyric acid] | > 8.00 | 7.52 to 7.68 |
| Cc1ccccc1C(=O)N[C@H](C(=O)N1CCC[C@H]1C(=O)N[C@H](C=O)CC(=O)O)C(C)(C)C [II-26, (S,S,S)-(3S)-({1-[3,3-Dimethyl-(2S)-(2-methyl-benzoylamino)-butyryl]-pyrrolidine-(2S)-carbonyl}-amino)-4-oxo-butyric acid] | > 8.00 | > 8.00 |
| CC(C)[C@H](NC(=O)c1ccccc1C(F)(F)F)C(=O)N1CCC[C@H]1C(=O)N[C@H](C=O)CC(=O)O [II-27, (S,S,S)-(3S)-({1-[3-Methyl-(2S)-(2-trifluoromethyl-benzoylamino)-butyryl]-pyrrolidine-(2S)-carbonyl}-amino)-4-oxo-butyric acid] | > 8.00 | > 8.00 |
| CC(C)(C)[C@H](NC(=O)c1ccccc1Cl)C(=O)N1CCC[C@H]1C(=O)N[C@H](C=O)CC(=O)O [II-28, (S,S,S)-(3S)-({1-[(2S)-(2-Chloro-benzoylamino)-3,3-dimethyl-butyryl]-pyrrolidine-(2S)-carbonyl}-amino)-4-oxo-butyric acid] | > 8.00 | > 8.00 |
| CC(C)(C)[C@H](NC(=O)c1ccccc1C(F)(F)F)C(=O)N1CCC[C@H]1C(=O)N[C@H](C=O)CC(=O)O [II-29, (S,S,S)-(3S)-({1-[3,3-Dimethyl-(2S)-(2-trifluoromethyl-benzoylamino)-butyryl]-pyrrolidine-(2S)-carbonyl}-amino)-4-oxo-butyric acid] | > 8.00 | > 8.00 |
| COc1cccc(C(=O)N[C@H](C(=O)N2CCC[C@H]2C(=O)N[C@H](C=O)CC(=O)O)C(C)(C)C)c1Cl [II-30, (S,S,S)-(3S)-({1-[(2S)-(2-Chloro-3-methoxy-benzoylamino)-3,3-dimethyl-butyryl]-pyrrolidine-(2S)-carbonyl}-amino)-4-oxo-butyric acid] | > 8.00 | > 8.00 |
| COc1cccc(C(=O)N[C@H](C(=O)N2CCC[C@H]2C(=O)N[C@H](C=O)CC(=O)O)C(C)(C)C)c1F [II-31, (S,S,S)-(3S)-({1-[(2S)-(2-Fluoro-3-methoxy-benzoylamino)-3,3-dimethyl-butyryl]-pyrrolidine-(2S)-carbonyl}-amino)-4-oxo-butyric acid] | > 8.00 | > 8.00 |

The remaining lines, values ahead:

| pKi (caspase-1) | pKi (caspase-8) | Structure (SMILES) |
| --- | --- | --- |
| > 8.00 | 7.70 to 8.00 | CC(C)[C@H](NC(=O)c1cccc(C(F)(F)F)c1Cl)C(=O)N1CCC[C@H]1C(=O)N[C@H](C=O)CC(=O)O [II-9, (S,S,S)-(3S)-({1-[(2S)-(2-Chloro-3-trifluoromethyl-benzoylamino)-3-methyl-butyryl]-pyrrolidine-(2S)-carbonyl}-amino)-4-oxo-butyric acid] |
| > 8.00 | 7.70 to 8.00 | Cc1c(Cl)cccc1C(=O)N[C@H](C(=O)N1CCC[C@H]1C(=O)N[C@H](C=O)CC(=O)O)C(C)C [II-10, (S,S,S)-(3S)-({1-[(2S)-(3-Chloro-2-methyl-benzoylamino)-3-methyl-butyryl]-pyrrolidine-(2S)-carbonyl}-amino)-4-oxo-butyric acid] |
| > 8.00 | 7.52 to 7.68 | CC(C)[C@H](NC(=O)c1ccc(Cl)cc1Cl)C(=O)N1CCC[C@H]1C(=O)N[C@H](C=O)CC(=O)O [II-11, (S,S,S)-(3S)-({1-[(2S)-(2,4-Dichloro-benzoylamino)-3-methyl-butyryl]-pyrrolidine-(2S)-carbonyl}-amino)-4-oxo-butyric acid] |
| > 8.00 | 7.70 to 8.00 | CC(C)[C@H](NC(=O)c1cc(Cl)ccc1Cl)C(=O)N1CCC[C@H]1C(=O)N[C@H](C=O)CC(=O)O [II-12, (S,S,S)-(3S)-({1-[(2S)-(2,5-Dichloro-benzoylamino)-3-methyl-butyryl]-pyrrolidine-(2S)-carbonyl}-amino)-4-oxo-butyric acid] |
| 7.70 to 8.00 | 7.70 to 8.00 | CC(C)[C@H](NC(=O)c1c(Cl)cccc1Cl)C(=O)N1CCC[C@H]1C(=O)N[C@H](C=O)CC(=O)O [II-13, (S,S,S)-(3S)-({1-[(2S)-(2,6-Dichloro-benzoylamino)-3-methyl-butyryl]-pyrrolidine-(2S)-carbonyl}-amino)-4-oxo-butyric acid] |
| 7.70 to 8.00 | > 8.00 | Cc1cccc(C)c1C(=O)N[C@H](C(=O)N1CCC[C@H]1C(=O)N[C@H](C=O)CC(=O)O)C(C)C [II-14, (S,S,S)-(3S)-({1-[(2S)-(2,6-Methyl-benzoylamino)-3-methyl-butyryl]-pyrrolidine-(2S)-carbonyl}-amino)-4-oxo-butyric acid] |
| > 8.00 | 7.70 to 8.00 | CC(C)[C@H](NC(=O)c1ccnc(Cl)c1Cl)C(=O)N1CCC[C@H]1C(=O)N[C@H](C=O)CC(=O)O [II-18, (S,S,S)-(3S)-[(1-{(2S)-[(2,3-Dichloro-pyridine-4-carbonyl)-amino]-3-methyl-butyryl}-pyrrolidine-(2S)-carbonyl)-amino]-4-oxo-butyric acid] |
| 7.70 to 8.00 | > 8.00 | CC(C)[C@H](NC(=O)c1c(Cl)cncc1Cl)C(=O)N1CCC[C@H]1C(=O)N[C@H](C=O)CC(=O)O [II-19, (S,S,S)-(3S)-[(1-{(2S)-[(3,5-Dichloro-pyridine-4-carbonyl)-amino]-3-methyl-butyryl}-pyrrolidine-(2S)-carbonyl)-amino]-4-oxo-butyric acid] |
